Experiments:
[1] = molecular target: T1, NAD(P)H dehydrogenase [quinone] 1 (Homo sapiens, UniProt P15559)
Description: Inhibition of human recombinant NQO1 in presence of BSA

[2] = molecular target: T1, NAD(P)H dehydrogenase [quinone] 1; remark: listed apart in the source
Description: Inhibition of human recombinant NQO1

HCT-116 [3] = assay: Cytotoxicity against human HCT116 cells assessed as reduction in cell number after 96 hrs by MTT assay; format: functional, cell-based; details: HCT-116, 96 h
MIA PaCa-2 [4] = assay: Cytotoxicity against human MIAPaCa2 cells assessed as reduction in cell number after 24 hrs by MTT assay; format: functional, cell-based; details: MIA PaCa-2, 24 h
HCT-116 [5] = assay: Cytotoxicity against human HCT116 cells assessed as reduction in cell number after 24 hrs by MTT assay; format: functional, cell-based; details: HCT-116, 24 h
MIA PaCa-2 [6] = assay: Cytotoxicity against human MIAPaCa2 cells assessed as reduction in cell number after 96 hrs by MTT assay; format: functional, cell-based; details: MIA PaCa-2, 96 h

T1 sequence (P15559 whole entry): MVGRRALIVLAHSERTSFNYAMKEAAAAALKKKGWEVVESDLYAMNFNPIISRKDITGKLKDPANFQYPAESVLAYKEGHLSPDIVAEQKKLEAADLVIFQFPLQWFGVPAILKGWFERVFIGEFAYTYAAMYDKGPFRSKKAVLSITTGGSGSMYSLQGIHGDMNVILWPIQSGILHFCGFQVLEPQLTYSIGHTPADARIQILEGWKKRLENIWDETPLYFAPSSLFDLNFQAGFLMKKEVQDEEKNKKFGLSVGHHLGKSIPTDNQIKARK

| IC50 [1] [µM] | IC50 [2] [µM] | Structure (SMILES) | IC50 (HCT-116 [3]) [µM] | IC50 (MIA PaCa-2 [4]) [µM] | IC50 (HCT-116 [5]) [µM] | IC50 (MIA PaCa-2 [6]) [µM] |
| --- | --- | --- | --- | --- | --- | --- |
|  |  | Cc1cc2oc(=O)c(Cc3cccc4ccccc34)c(O)c2cc1C | 56 | > 400 | 160 | 188 |
| 5.5 | 0.014 | Cc1ccc2oc(=O)c(Cc3c(O)c4cc(C)ccc4oc3=O)c(O)c2c1 |  |  |  |  |
|  |  | COc1ccc2c(O)c(Cc3c(O)c4ccc(OC)cc4oc3=O)c(=O)oc2c1 | 187 | 448 | > 400 | 303 |
|  |  | Cc1ccc2c(O)c(Cc3c(O)c4ccc(C)c(C)c4oc3=O)c(=O)oc2c1C | 35 | 359 | 178 | 119 |
|  |  | COc1cc2oc(=O)c(Cc3c(O)c4cc(OC)c(OC)cc4oc3=O)c(O)c2cc1OC | > 400 | > 400 | > 400 | > 400 |
|  |  | Cc1cc2oc(=O)c(Cc3ccc4ccccc4c3)c(O)c2cc1C | 180 | 390 | 208 | 162 |
|  |  | Cc1cc2oc(=O)c(Cc3c(O)c4cc(C)c(C)cc4oc3=O)c(O)c2cc1C | 35 | 213 | 201 | 106 |
|  |  | Cc1ccc(Cc2c(O)c3cc(C)c(C)cc3oc2=O)cc1C | 176 | > 400 | > 400 | 407 |
|  |  | COc1cccc2oc(=O)c(Cc3c(O)c4c(OC)cccc4oc3=O)c(O)c12 | 80 | 390 | > 400 | 350 |
| 6.25 | 0.009 | O=c1oc2ccc(Cl)cc2c(O)c1Cc1c(O)c2cc(Cl)ccc2oc1=O |  |  |  |  |
|  |  | Cc1cc2oc(=O)c(Cc3ccccc3)c(O)c2cc1C | 178 | > 400 | > 400 | 267 |
| 3.3 | 0.011 | COc1ccc2oc(=O)c(Cc3c(O)c4cc(OC)ccc4oc3=O)c(O)c2c1 | 48 | 300 | 196 | 405 |
|  |  | O=c1oc2ccccc2c(O)c1Cc1c(O)c2ccccc2oc1=O [DICUMAROL] | 19 | 90 | 103 | 52 |

| Structure (SMILES) | IC50 [1] [µM] | IC50 [2] [µM] | IC50 (HCT-116 [3]) [µM] | IC50 (MIA PaCa-2 [4]) [µM] | IC50 (HCT-116 [5]) [µM] | IC50 (MIA PaCa-2 [6]) [µM] |
| --- | --- | --- | --- | --- | --- | --- |
| CCCC(c1c(O)c2ccccc2oc1=O)c1c(O)c2ccccc2oc1=O | 5.32 | 0.588 |  |  |  |  |
| O=c1oc2ccccc2c(O)c1Cc1ccccc1 | 3.2 | 0.144 |  |  |  |  |

— ChEMBL document CHEMBL1154679, “Synthesis and biological evaluation of coumarin-based inhibitors of NAD(P)H: quinone oxidoreductase-1 (NQO1)” (J Med Chem, 2009)
